Test results as given in patent US20120029187A1, “HALOALKYLSULFONANILIDE DERIVATIVE” (Nissan Chemical Industries, Ltd., priority 2009, published 2012).

Assays:
Format in all cases: in vivo
transplanted rice = test: Test Example 1: preemergence treatment under submerged conditions, effect on crop; settings: dose 2.52 g/a
How it was run: (§1)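 Flooded-paddy preemergence assay; EC diluted with water, surface-applied at weed seeding; doses g/a; rice transplanted at 2.5 leaves; 0–5 mortality score after 3 weeks.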

bulrush [1] = test: Test Example 1: herbicidal effects in preemergence treatment under submerged conditions; settings: dose 2.52 g/a
How it was run: as §1

barnyardgrass [2] = test: as above; settings: dose 2.52 g/a
How it was run: as §1

ducksalad [3] = test: as above; settings: dose 2.52 g/a
How it was run: as §1

large crabgrass [4] = test: Test Example 3: herbicidal effects in soil treatment; settings: dose 3.2 g/a
How it was run: (§2)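 Seeds were sown in sterilized diluvial soil and covered with about 1.5 cm of soil. Compounds, formulated as emulsifiable concentrates and diluted with water, were sprayed evenly over the soil surface at set doses in g/a. Herbicidal effect was scored on a rating scale three weeks later.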

wild oat [5] = test: as above; settings: dose 3.2 g/a
How it was run: as §2

water foxtail [6] = test: as above; settings: dose 3.2 g/a
How it was run: as §2

giant foxtail [7] = test: as above; settings: dose 3.2 g/a
How it was run: as §2

redroot pigweed [8] = test: as above; settings: dose 3.2 g/a
How it was run: as §2

common ragweed [9] = test: as above; settings: dose 3.2 g/a
How it was run: as §2

barnyardgrass [10] = test: as above; settings: dose 3.2 g/a
How it was run: as §2

Italian ryegrass [11] = test: as above; settings: dose 3.2 g/a
How it was run: as §2

posumbu knotweed [12] = test: as above; settings: dose 3.2 g/a
How it was run: as §2

common lambsquater [13] = test: as above; settings: dose 3.2 g/a
How it was run: as §2

common chickweed [14] = test: as above; settings: dose 3.2 g/a
How it was run: as §2

velvetleaf [15] = test: as above; settings: dose 3.2 g/a
How it was run: as §2

large crabgrass [16] = test: Test Example 4: herbicidal effect in foliage treatment; settings: dose 3.2 g/a, three weeks after the application
How it was run: (§3)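 Seeds were spot-sown in boxes of sterilized diluvial soil and raised in a greenhouse (25 to 30° C) for 14 days before a single foliar application. Compounds were applied as emulsifiable concentrates diluted with water, at predetermined doses in g/a. Injury was graded three weeks post-spray.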

wild oat [17] = test: as above; settings: dose 3.2 g/a, three weeks after the application
How it was run: as §3

water foxtail [18] = test: as above; settings: dose 3.2 g/a, three weeks after the application
How it was run: as §3

giant foxtail [19] = test: as above; settings: dose 3.2 g/a, three weeks after the application
How it was run: as §3

redroot pigweed [20] = test: as above; settings: dose 3.2 g/a, three weeks after the application
How it was run: as §3

beadstraw = test: as above; settings: dose 3.2 g/a, three weeks after the application
How it was run: as §3

common ragweed [21] = test: as above; settings: dose 3.2 g/a, three weeks after the application
How it was run: as §3

barnyardgrass [22] = test: as above; settings: dose 3.2 g/a, three weeks after the application
How it was run: as §3

Italian ryegrass [23] = test: as above; settings: dose 3.2 g/a, three weeks after the application
How it was run: as §3

posumbu knotweed [24] = test: as above; settings: dose 3.2 g/a, three weeks after the application
How it was run: as §3

common lambsquater [25] = test: as above; settings: dose 3.2 g/a, three weeks after the application
How it was run: as §3

common chickweed [26] = test: as above; settings: dose 3.2 g/a, three weeks after the application
How it was run: as §3

velvetleaf [27] = test: as above; settings: dose 3.2 g/a, three weeks after the application
How it was run: as §3

bulrush [28] = test: Test Example 2: herbicidal effects during the vegetation period under submerged conditions; settings: treatment during the vegetation period under submerged conditions; dose 2.52 g/a
How it was run: (§4)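 Barnyardgrass, bulrush and ducksalad were co-sown in alluvial soil flooded to 4 cm and grown in a greenhouse at 25 to 30° C. At the 1- or 2-leaf stage, water-diluted emulsifiable concentrates went onto the water surface at set doses (g/a). Herbicidal effect was scored three weeks later on a graded scale.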

barnyardgrass [29] = test: as above; settings: treatment during the vegetation period under submerged conditions; dose 2.52 g/a
How it was run: as §4

ducksalad [30] = test: as above; settings: treatment during the vegetation period under submerged conditions; dose 2.52 g/a
How it was run: as §4

Compound | a: transplanted rice, effect on crop (evaluation scale 0-5) (transplanted rice) | B: bulrush, herbicidal effect (evaluation scale 0-5) (bulrush [1]) | A: barnyardgrass, herbicidal effect (evaluation scale 0-5) (barnyardgrass [2]) | C: ducksalad, herbicidal effect (evaluation scale 0-5) (ducksalad [3]) | herbicidal effect, D: large crabgrass (large crabgrass [4]) | herbicidal effect, F: wild oat (wild oat [5]) | herbicidal effect, G: water foxtail (water foxtail [6]) | herbicidal effect, E: giant foxtail (giant foxtail [7]) | herbicidal effect, K: redroot pigweed (redroot pigweed [8]) | herbicidal effect, J: common ragweed (common ragweed [9]) | herbicidal effect, A: barnyardgrass (barnyardgrass [10]) | herbicidal effect, H: Italian ryegrass (Italian ryegrass [11]) | herbicidal effect, M: posumbu knotweed (posumbu knotweed [12]) | herbicidal effect, L: common lambsquater (common lambsquater [13]) | herbicidal effect, N: common chickweed (common chickweed [14]) | herbicidal effect, I: velvetleaf (velvetleaf [15]) | D: large crabgrass, herbicidal effect (large crabgrass [16]) | F: wild oat, herbicidal effect (wild oat [17]) | G: water foxtail, herbicidal effect (water foxtail [18]) | E: giant foxtail, herbicidal effect (giant foxtail [19]) | further results
O=C1CCCON1Cc1ccccc1N(C(=O)OCCCl)S(=O)(=O)C(F)(F)F [III-14] | 3 (mortality of at least 40% and less than 70%) | 5 (mortality of 90% or above (nearly complete death)) | 5 (mortality of 90% or above (nearly complete death)) | 5 (mortality of 90% or above (nearly complete death)) | 5 (mortality of 90% or above (nearly complete death)) | 0 (mortality of less than 5% (almost ineffective)) | 5 (mortality of 90% or above (nearly complete death)) | 5 (mortality of 90% or above (nearly complete death)) | 1 (mortality of at least 5% and less than 20%) | 5 (mortality of 90% or above (nearly complete death)) | 5 (mortality of 90% or above (nearly complete death)) | 3 (mortality of at least 40% and less than 70%) | 3 (mortality of at least 40% and less than 70%) | 0 (mortality of less than 5% (almost ineffective)) | 5 (mortality of 90% or above (nearly complete death)) | 5 (mortality of 90% or above (nearly complete death)) | 5 (mortality of 90% or above (nearly complete death)) | 0 (mortality of less than 5% (almost ineffective)) | 5 (mortality of 90% or above (nearly complete death)) | 5 (mortality of 90% or above (nearly complete death)) | K: redroot pigweed, herbicidal effect (redroot pigweed [20]): 3 (mortality of at least 40% and less than 70%); O: beadstraw, herbicidal effect (beadstraw): 5 (mortality of 90% or above (nearly complete death)); J: common ragweed, herbicidal effect (common ragweed [21]): 4 (mortality of at least 70% and less than 90%); A: barnyardgrass, herbicidal effect (barnyardgrass [22]): 5 (mortality of 90% or above (nearly complete death)); H: Italian ryegrass, herbicidal effect (Italian ryegrass [23]): 4 (mortality of at least 70% and less than 90%); M: posumbu knotweed, herbicidal effect (posumbu knotweed [24]): 0 (mortality of less than 5% (almost ineffective)); L: common lambsquater, herbicidal effect (common lambsquater [25]): 0 (mortality of less than 5% (almost ineffective)); N: common chickweed, herbicidal effect (common chickweed [26]): 4 (mortality of at least 70% and less than 90%); I: velvetleaf, herbicidal effect (velvetleaf [27]): 5 (mortality of 90% or above (nearly complete death)); B: bulrush, herbicidal effect (evaluation scale 0-5) (bulrush [28]): 5 (mortality of 90% or above (nearly complete death)); A: barnyardgrass, herbicidal effect (evaluation scale 0-5) (barnyardgrass [29]): 5 (mortality of 90% or above (nearly complete death)); C: ducksalad, herbicidal effect (evaluation scale 0-5) (ducksalad [30]): 5 (mortality of 90% or above (nearly complete death))
CCN1COCN(Cc2ccccc2NS(=O)(=O)C(F)(F)F)C1=O [IV-5] | 0 (mortality of less than 5% (almost ineffective)) | 5 (mortality of 90% or above (nearly complete death)) | 5 (mortality of 90% or above (nearly complete death)) | 4 (mortality of at least 70% and less than 90%) | 5 (mortality of 90% or above (nearly complete death)) | 2 (mortality of at least 20% and less than 40%) | 5 (mortality of 90% or above (nearly complete death)) | 5 (mortality of 90% or above (nearly complete death)) | 3 (mortality of at least 40% and less than 70%) | 0 (mortality of less than 5% (almost ineffective)) | 5 (mortality of 90% or above (nearly complete death)) | 4 (mortality of at least 70% and less than 90%) | 4 (mortality of at least 70% and less than 90%) | 3 (mortality of at least 40% and less than 70%) | 5 (mortality of 90% or above (nearly complete death)) | 5 (mortality of 90% or above (nearly complete death)) | 4 (mortality of at least 70% and less than 90%) | 0 (mortality of less than 5% (almost ineffective)) | 5 (mortality of 90% or above (nearly complete death)) | 4 (mortality of at least 70% and less than 90%) | K: redroot pigweed, herbicidal effect (redroot pigweed [20]): 0 (mortality of less than 5% (almost ineffective)); O: beadstraw, herbicidal effect (beadstraw): 3 (mortality of at least 40% and less than 70%); J: common ragweed, herbicidal effect (common ragweed [21]): 3 (mortality of at least 40% and less than 70%); A: barnyardgrass, herbicidal effect (barnyardgrass [22]): 5 (mortality of 90% or above (nearly complete death)); H: Italian ryegrass, herbicidal effect (Italian ryegrass [23]): 3 (mortality of at least 40% and less than 70%); M: posumbu knotweed, herbicidal effect (posumbu knotweed [24]): 0 (mortality of less than 5% (almost ineffective)); L: common lambsquater, herbicidal effect (common lambsquater [25]): 3 (mortality of at least 40% and less than 70%); N: common chickweed, herbicidal effect (common chickweed [26]): 4 (mortality of at least 70% and less than 90%); I: velvetleaf, herbicidal effect (velvetleaf [27]): 5 (mortality of 90% or above (nearly complete death)); B: bulrush, herbicidal effect (evaluation scale 0-5) (bulrush [28]): 5 (mortality of 90% or above (nearly complete death)); A: barnyardgrass, herbicidal effect (evaluation scale 0-5) (barnyardgrass [29]): 5 (mortality of 90% or above (nearly complete death)); C: ducksalad, herbicidal effect (evaluation scale 0-5) (ducksalad [30]): 5 (mortality of 90% or above (nearly complete death))
